From patent US20090143361A1, “Pyrido[3,2-E]Pyrazines, Process For Preparing The Same, And Their Use As Inhibitors Of Phosphodiesterase 10” (ELBION GMBH, priority 2007, published 2009) come the findings set out here.

Like-named read-outs stand apart in the source and are kept apart here.

This assay deals with PDE10 from pig striatum (Sus scrofa, UniProt A0A287B941). Put plainly: Inhibition of PDE10 from pig striatum ([3H]-cAMP SPA). The format is biochemical. The settings on record: read-out: PDE10 pig IC50. On the procedure: Phosphodiesterase isoenzyme 10 (PDE10) activity was determined in preparations of human recombinant PDE10A and PDE10 from pig striatum, respectively.
Striatum from male hybrid pigs (150 kg) were collected and frozen at −70° C.
At the day of preparation 0.5 g striatum was homogenised in 10 ml 50 mM Tris/Mg-buffer at 4° C. and centrifuged for one hour at 100000 g. The supernatant was removed and the pellet was resuspended in the same buffer, but containing 1% Triton and incubated for 45 min at 4° C. The membrane fraction was applied onto a 5 ml Hi Trap™ QHP column at the Akta-FPLC. After washing the column the bound PDE protein was eluted with an increasing sodium chloride gradient (O mM-500 mM sodium chloride) in 50 mM Tris/Mg-buffer at 4° C. in the presence of 1% Triton. […] The fractions with PDE10-activity were pooled and frozen in aliquots until use at −20° C.
PDE10 activity was determined in a one step procedure in microtiterplates. […] Nonspecific activity was tested without the enzyme. The reaction was initiated by addition of the substrate solution and was carried out at 37° C. for 30 minutes. Enzymatic activity was stopped by addition of 25 μl YSi-SPA-beads (Amersham-Pharmacia). One hour later the mixture was measured in a liquid scintillation counter for microtiterplates (Microbeta Trilux). To pipette the incubation mixture a robot Biomek (Fa. Beckman) is used. […] For determination of IC50 values the Hill-plot, 2-parameter-model, was used.
The phosphodiesterase isoenzyme 10 (PDE10) activity was determined in preparations of rat, pig and guinea pig striatum respectively. Striatum from male Wistar rats (180-200 g), male hybrid pigs (150 kg) and male guinea pigs (CRL (HA), 500 g) respectively were collected and frozen at −70° C.
At the day of preparation 0.5 g striatum was homogenized in 10 ml 50 mM Tris/Mg-buffer at 4° C. and centrifuged for one hour at 100000 g. The supernatant is called the cytosolic fraction and was removed and stored on ice. The pellet was resuspended in the same buffer, but containing 1% Triton and incubated for 45 min at 4° C. Both fractions were independently applied onto a 5 ml Hi Trap™ QHP column at the Akta-FPLC. After washing the columns the bound PDE protein was eluted with an increasing sodium chloride gradient (0 mM-500 mM sodium chloride) in 50 mM Tris/Mg-buffer at 4° C. for the cytosolic fraction and in the presence of 1% Triton for the membrane fraction. […] The fractions with PDE10-activity were pooled and frozen in aliquots until use at −20° C.
PDE10 activity was determined in a one step procedure in microtiterplates. […] Nonspecific activity was tested without the enzyme. The reaction was initiated by addition of the substrate solution and was carried out at 37° C. for 30 minutes. Enzymatic activity was stopped by addition of 25 μl YSi-SPA beads (Amersham-Pharmacia). One hour later the mixture was measured in a liquid scintillation counter for microtiterplates (Microbeta Trilux). To pipette the incubation mixture a robot Biomek (Fa. Beckman) is used. […] For determination of IC50 values the Hill-plot, 2-parameter-model, was used.

Consider `Cc1nc(CCC(F)(F)F)n2c1c(Cl)nc1ccc(OCC(F)(F)F)nc12` [Example 1, 6-Chloro-7-methyl-2-(2,2,2-trifluoroethoxy)-9-(3,3,3-trifluoropropyl)imidazo[1,5-a]pyrido[3,2-e]pyrazine], for which the half-inhibitory concentration (IC50) (usually the concentration at which inhibition is half-maximal) (Table 7) is 10 to 100 nM.

Regarding `CCCc1nc(C)c2c(Cl)nc3ccc(OCC)nc3n12` [Example 2, 6-Chloro-2-ethoxy-7-methyl-9-propylimidazo[1,5-a]pyrido[3,2-e]pyrazine], the IC50 (Table 7) was < 10 nM.

With `CCCc1nc(C)c2c(C)nc3ccc(OCC)nc3n12` [Example 3, 2-Ethoxy-6,7-dimethyl-9-propylimidazo[1,5-a]pyrido[3,2-e]pyrazine], for the setting “Table 7”, the IC50 lay in the range of 10 to 100 nM.

In the case of `CCOc1ccc2nc(C)c3c(C)nc(-c4ccccc4Cl)n3c2n1` [Example 4, 9-(2-Chlorophenyl)-2-ethoxy-6,7-dimethylimidazo[1,5-a]pyrido[3,2-e]pyrazine], the IC50 (Table 7) is < 10 nM.

Regarding `COc1ccc2nc(C)c3c(C)nc(-c4cccc(F)c4)n3c2n1` [Example 5, 9-(3-Fluorophenyl)-2-methoxy-6,7-dimethylimidazo[1,5-a]pyrido[3,2-e]pyrazine], the IC50 (Table 7) lay within 10 to 100 nM.

As to `COc1ccc2nc(C)c3c(C)nc(-c4cc(Cl)cc(Cl)c4)n3c2n1` [Example 6, 9-(3,5-Dichlorophenyl)-2-methoxy-6,7-dimethylimidazo[1,5-a]pyrido[3,2-e]pyrazine], the IC50 (Table 7) lay within 10 to 100 nM.

For the compound `COc1ccc2nc(C)c3c(C)nc(-c4ccc(Cl)c(Cl)c4)n3c2n1` [Example 7, 9-(3,4-Dichlorophenyl)-2-methoxy-6,7-dimethylimidazo[1,5-a]pyrido[3,2-e]pyrazine], the concentration for half-maximal inhibition (IC50) (Table 7) was in the range of 10 to 100 nM.

For `COc1ccc2nc(C)c3c(C)nc(-c4ccc(F)cc4F)n3c2n1` [Example 8, 9-(2,4-Difluorophenyl)-2-methoxy-6,7-dimethylimidazo[1,5-a]pyrido[3,2-e]pyrazine], the IC50 (Table 7) was 10 to 100 nM.

As for `COc1ccc2nc(C)c3c(C)nc(-c4ccc(F)nc4)n3c2n1` [Example 9, 9-(6-Fluoropyridin-3-yl)-2-methoxy-6,7-dimethylimidazo[1,5-a]pyrido[3,2-e]pyrazine], the IC50 (Table 7) fell in the range of 10 to 100 nM.

With `COc1ccc2nc(C)c3c(C)nc(-c4cccnc4)n3c2n1` [Example 10, 2-Methoxy-6,7-dimethyl-9-pyridin-3-ylimidazo[1,5-a]pyrido[3,2-e]pyrazine], where the note is “Table 7”, the IC50 fell in the range of 10 to 100 nM.

With `COc1ccc2nc(C)c3c(C)nc(-c4ccncc4)n3c2n1` [Example 11, 2-Methoxy-6,7-dimethyl-9-pyridin-4-ylimidazo[1,5-a]pyrido[3,2-e]pyrazine], the IC50 (Table 7) fell in the range of 10 to 100 nM.

With `COc1ccc2nc(C)c3c(C)nc(-c4ccc(C)cc4Cl)n3c2n1` [Example 12, 9-(2-Chloro-4-methylphenyl)-2-methoxy-6,7-dimethylimidazo[1,5-a]pyrido[3,2-e]pyrazine], where the note is “Table 7”, the IC50 is < 10 nM.

Consider `COc1ccc2nc(C)c3c(C)nc(-c4ccc(Cl)cc4C)n3c2n1` [Example 13, 9-(4-Chloro-2-methylphenyl)-2-methoxy-6,7-dimethylimidazo[1,5-a]pyrido[3,2-e]pyrazine], for which the IC50 (Table 7) is < 10 nM.

For the compound `COc1ccc2nc(C)c3c(C)nc(-c4ccc(C)cc4F)n3c2n1` [Example 14, 9-(2-Fluoro-4-methylphenyl)-2-methoxy-6,7-dimethylimidazo[1,5-a]pyrido[3,2-e]pyrazine], the IC50 (Table 7) was < 10 nM.

On to `COc1ccc2nc(C)c3c(C)nc(-c4cccc(OC)c4F)n3c2n1` [Example 15, 9-(2-Fluoro-3-methoxyphenyl)-2-methoxy-6,7-dimethylimidazo[1,5-a]pyrido[3,2-e]pyrazine], for which the IC50 (Table 7) lay within 10 to 100 nM.

`COc1ccc(-c2nc(C)c3c(C)nc4ccc(OC)nc4n23)c(Cl)c1` [Example 18, 9-(2-Chloro-4-methoxyphenyl)-2-methoxy-6,7-dimethylimidazo[1,5-a]pyrido[3,2-e]pyrazine]: where the note is “Table 7”, the IC50 was < 10 nM.

On to `COc1ccc2nc(C)c3c(C)nc(-c4cc(F)ccc4Cl)n3c2n1` [Example 22, 9-(2-Chloro-5-fluorophenyl)-2-methoxy-6,7-dimethylimidazo[1,5-a]pyrido[3,2-e]pyrazine], for which the half-inhibitory concentration (IC50) (Table 7) was < 10 nM.

On to `COc1ccc2nc(C)c3c(C)nc(-c4cncnc4)n3c2n1` [Example 27, 2-Methoxy-6,7-dimethyl-9-pyrimidin-5-ylimidazo[1,5-a]pyrido[3,2-e]pyrazine], for which the IC50 (Table 7) was < 10 nM.

For `COc1ccc(-c2nc(C)c3c(C)nc4ccc(OC)nc4n23)cn1` [Example 28, 2-Methoxy-9-(6-methoxypyridin-3-yl)-6,7-dimethylimidazo[1,5-a]pyrido[3,2-e]pyrazine], the IC50 (Table 7) was in the range of 10 to 100 nM.

Regarding `COc1ccc2nc(C)c3c(C)nc(-c4cccnc4OC)n3c2n1` [Example 29, 2-Methoxy-9-(2-methoxypyridin-3-yl)-6,7-dimethylimidazo[1,5-a]pyrido[3,2-e]pyrazine], the concentration for half-maximal inhibition (IC50) (Table 7) fell in the range of 10 to 100 nM.

Take `COc1ccc2nc(C)c3c(C)nc(-c4cnccc4OC)n3c2n1` [Example 30, 2-Methoxy-9-(4-methoxypyridin-3-yl)-6,7-dimethylimidazo[1,5-a]pyrido[3,2-e]pyrazine]: the IC50 (Table 7) is 10 to 100 nM.

As to `COc1ccc2nc(Cl)c3c(C)nc(CCC(F)(F)F)n3c2n1` [Example 41, 6-Chloro-2-methoxy-7-methyl-9-(3,3,3-trifluoropropyl)imidazo[1,5-a]pyrido[3,2-e]pyrazine], the IC50 (Table 8) was in the range of 10 to 100 nM.

Regarding `COc1ccc2nc(C)c3c(C)nc(CCC(F)(F)F)n3c2n1` [Example 42, 2-Methoxy-6,7-dimethyl-9-(3,3,3-trifluoropropyl)imidazo[1,5-a]pyrido[3,2-e]pyrazine], the IC50 (Table 8) fell in the range of 10 to 100 nM.

For `COc1ccc2nc(N3CCC3)c3c(C)nc(CCC(F)(F)F)n3c2n1` [Example 43, 6-Azetidin-1-yl-2-methoxy-7-methyl-9-(3,3,3-trifluoropropyl)imidazo[1,5-a]pyrido[3,2-e]pyrazine], the IC50 (Table 8) was > 100 nM.

As for `COc1ccc2nc(N)c3c(C)nc(CCC(F)(F)F)n3c2n1` [Example 44, 2-Methoxy-7-methyl-9-(3,3,3-trifluoropropyl)imidazo[1,5-a]pyrido[3,2-e]pyrazin-6-amine], the IC50 (Table 8) lay in the range of 10 to 100 nM.

Take `COc1ccc2nc(NS(C)(=O)=O)c3c(C)nc(CCC(F)(F)F)n3c2n1` [Example 45, N-[2-Methoxy-7-methyl-9-(3,3,3-trifluoropropyl)imidazo[1,5-a]pyrido[3,2-e]pyrazin-6-yl]methanesulfonamide]: the IC50 (Table 8) is 10 to 100 nM.

Turning to `COc1ccc2nc(C)c3c(C)nc(-c4cc(Cl)ccc4Cl)n3c2n1` [Example 47, 9-(2,5-Dichlorophenyl)-2-methoxy-6,7-dimethylimidazo[1,5-a]pyrido[3,2-e]pyrazine], where the note is “Table 8”, the IC50 was < 10 nM.

For the compound `COc1ccc2nc(C)c3c(C)nc(-c4cccc(Cl)c4)n3c2n1` [Example 48, 9-(3-Chlorophenyl)-2-methoxy-6,7-dimethylimidazo[1,5-a]pyrido[3,2-e]pyrazine], under “Table 8”, the IC50 was < 10 nM.

Turning to `COc1ccc2nc(C)c3c(C)nc(-c4ccccc4OC)n3c2n1` [Example 52, 2-Methoxy-9-(2-methoxyphenyl)-6,7-dimethylimidazo[1,5-a]pyrido[3,2-e]pyrazine], the IC50 (Table 8) was in the range of 10 to 100 nM.

Regarding `COc1ccc2nc(C)c3c(C)nc(-c4ccccc4OC(C)C)n3c2n1` [Example 54, 9-(2-Isopropoxyphenyl)-2-methoxy-6,7-dimethylimidazo[1,5-a]pyrido[3,2-e]pyrazine], the IC50 (Table 8) was > 100 nM.

Regarding `COc1ccc(-c2nc(C)c3c(C)nc4ccc(OC)nc4n23)cc1` [Example 55, 2-Methoxy-9-(4-methoxyphenyl)-6,7-dimethylimidazo[1,5-a]pyrido[3,2-e]pyrazine], the IC50 (Table 8) lay within 10 to 100 nM.

With `COc1ccc2nc(C)c3c(C)nc(-c4ccsc4)n3c2n1` [Example 56, 2-Methoxy-6,7-dimethyl-9-(3-thienyl)imidazo[1,5-a]pyrido[3,2-e]pyrazine], where the note is “Table 8”, the IC50 lay in the range of 10 to 100 nM.

Turning to `COc1ccc2nc(C)c3c(C)nc(-c4ccoc4)n3c2n1` [Example 58, 9-(3-Furyl)-2-methoxy-6,7-dimethylimidazo[1,5-a]pyrido[3,2-e]pyrazine], the IC50 (Table 8) was 10 to 100 nM.
